Measurements reported in patent publication US20110263454A1, “Methods of Identifying Functional Characteristics of Promoters, Transcription Modifying Proteins and Transcription Modulating Agents” (Salk Institute for Biological Studies, priority 2008, published 2011).

Assays:
[1] = tested on: mPgc1b promoter; assay: NHR-promoter luciferase screen, mPgc1b promoter; format: cell-based, mouse; conditions: for Luc. act., normalized to lacZ / Normalized Luc. act., normalized to control: PGC1b promoter reporter, co-transfected HR, without or with its ligand; for Normalized Luc. act., normalized to control: relative to control; for luciferase activity normalized to lacZ activity and to a control, mPgc1b: mPgc1b promoter-luciferase, CV-1 cells, NHR +/- ligand, control = 1.00
Protocol: Briefly, there were co-expressed 50 ng of each NHR/NHR homodimer or NHR/RXR heterodimer with 100 ng promoter/luciferase construct and 50 ng of LacZ (as a control for transfection efficiency) in CV-1 cells using Fugene HD (Roche) as a transfection reagent (alternatively or additionally, a CMV-YFP construct can be used as a transfection control). Each of the nuclear hormone receptors that were used in these experiments was cloned into a pcDNA3.1 vector and comprised a C-terminally linked V5H6 tag.
(§1) The promoters that facilitate transcription of the indicated gene products that were tested using the protocols described herein are listed in the first row of the table. The nuclear hormone receptors and, where applicable, ligands that were assayed for their transcriptional effects on the promoters are listed in the first column of the table. The data represent the luciferase activity of each sample normalized to both the lacZ activity of that sample and to a control, e.g., no NHR or ligand, as customary in the art. As described previously, these normalizations allow the transcriptional activity of each reporter cell to be compared to other samples.
(§2) Tables 7-40 show the transcriptional effects of the hormone receptors, and, where applicable, ligands (orphan receptors are screened without ligand), on each individual promoter. […] The control data of each table are shown in their last rows.

[2] = tested on: mPOMC promoter; assay: NHR-promoter luciferase screen, mPOMC promoter; format: cell-based, mouse; conditions: for Results of assays of transcription factor (+/- ligand) with mPOMC: Table 6d, luciferase activity relative to control (control = 1.00); for Luc. act., normalized to lacZ / Normalized Luc. act., normalized to control: mPOMC promoter, HR component with or without ligand; for Normalized Luc. act., normalized to control: relative to control
Protocol: (§3) The use, feasibility, and reproducibility of the functional NHR-promoter screen in a 48-well format have been tested validated. Briefly, there were co-expressed 50 ng of each NHR/NHR homodimer or NHR/RXR heterodimer with 100 ng promoter/luciferase construct and 50 ng of LacZ (as a control for transfection efficiency) in CV-1 cells using Fugene HD (Roche) as a transfection reagent (alternatively or additionally, a CMV-YFP construct can be used as a transfection control). Each of the nuclear hormone receptors that were used in these experiments was cloned into a pcDNA3.1 vector and comprised a C-terminally linked V5H6 tag. Twenty-four hours after transfection, appropriate ligands were added, where applicable, (see Table 5 for various ligands and concentrations and after 48 hrs, samples were assayed for luciferase and LacZ activity. To measure for luciferase activity 15 ul of sample was added to 30 ul of luciferase buffer (20 mM tricine, 1.07 mM MgCarbonate, 2.67 mM MgSulfate, 0.1 mM Naz-EDTA, 5 mM DTT, 5 mM ATP, 0.15 mg/ml CoA, 0.5 mM Luciferin), mixed briefly, and run in a Perkin Elmer Victor 5 luminometer. Thus, the functional NHR-promoter screen was used to observe the transcriptional activity of 29 promoters from various physiological pathways including inflammation, lipid and sugar metabolism, cholesterol transport, xenobiotic metabolism, and circadian rhythm.
as §1, §2

[3] = tested on: mAdiponectin promoter; assay: NHR-promoter luciferase screen, mAdiponectin promoter; format: cell-based, mouse; conditions: for Luc. act., normalized to lacZ / Normalized Luc. act., normalized to control: Adiponectin, HR component without or with its ligand; for mAdiponectin promoter reporter activity: transcription factor +/- ligand, control = 1.00
Protocol: as §3, §1, §2

[4] = tested on: mDio1 promoter; assay: NHR-promoter luciferase screen, mDio1 promoter; format: cell-based, mouse; conditions: for Luc. act., normalized to lacZ / Normalized Luc. act., normalized to control: Dio1, HR component without or with its ligand; for mDio1 promoter reporter activity: transcription factor +/- ligand, control = 1.00
Protocol: as §3, §1, §2

[5] = tested on: hTNFa promoter; assay: NHR-promoter luciferase screen, hTNFa promoter; format: cell-based, human; conditions: for Luc. act., normalized to lacZ / Normalized Luc. act., normalized to control: TNFa promoter, HR component without or with ligand; for hTNFa promoter reporter activity: transcription factor +/- ligand, control = 1.00
Protocol: as §3, §1, §2

[6] = tested on: hIFNg promoter; assay: NHR-promoter luciferase screen, hIFNg promoter; format: cell-based, human; conditions: for Luc. act., normalized to lacZ / Normalized Luc. act., normalized to control: IFNg promoter, HR component without or with ligand; for hIFNg promoter reporter activity: transcription factor +/- ligand, control = 1.00
Protocol: as §3, §1, §2

| Substance | Luc. act., normalized to lacZ [1] | Normalized Luc. act., normalized to control [1] | luciferase activity normalized to lacZ activity and to a control, mPgc1b [1] | Results of assays of transcription factor (+/- ligand) with mPOMC [2] | Luc. act., normalized to lacZ [2] | Normalized Luc. act., normalized to control [2] | Luc. act., normalized to lacZ [3] | Normalized Luc. act., normalized to control [3] | mAdiponectin promoter reporter activity [3] | Luc. act., normalized to lacZ [4] | Normalized Luc. act., normalized to control [4] | mDio1 promoter reporter activity [4] | Luc. act., normalized to lacZ [5] | Normalized Luc. act., normalized to control [5] | hTNFa promoter reporter activity [5] | Luc. act., normalized to lacZ [6] | Normalized Luc. act., normalized to control [6] | hIFNg promoter reporter activity [6] |
| --- | --- | --- | --- | --- | --- | --- | --- | --- | --- | --- | --- | --- | --- | --- | --- | --- | --- | --- |
| PPARa: Peroxisome proliferator activated receptor α (NR1C1), cDNA driver | 9.33 | 0.8 | 0.79 | 1.13 | 77.6 | 1.1 | 40.4 | 0.6 | 0.64 | 4.7 | 1.1 | 1.06 | 1107.9 | 1.1 | 1.13 | 11.3 | 0.7 | 0.71 |
| SF-1: Steroidogenic Factor 1 (NR5A1, SF1), cDNA driver | 33.2 | 2.8 | 2.80 | 8.37 | 577.5 | 8.4 | 35.0 | 0.6 | 0.56 | 19.8 | 4.5 | 4.45 | 1900.9 | 1.9 | 1.93 | 46.3 | 2.9 | 2.91 |
| AR: Androsterone Receptor (NR3C4), cDNA driver | 9.0 | 0.8 | 0.76 | 1.05 | 72.2 | 1.0 | 82.7 | 1.3 | 1.32 | 6.4 | 1.4 | 1.43 | 1019.9 | 1.0 | 1.04 | 31.4 | 2.0 | 1.97 |
